Assay [1] has as its system A549. In words: transwell migration and Matrigel invasion, A549. The class given is cell-based, human. The conditions noted are these: 24 h; for succinate-induced A549 migration: succinate with test agent. The protocol:
(§1) Transwell migration and invasion assays are performed. Relative ability of migration or invasion is calculated from 3 fields under a light microscope. […] Migration assays and Matrigel invasion assay are then performed with PDGF-BB as a chemoattractant and migrated cell counts expressed as fold of basal controls.
(§2) The cells are lysed, and the cell lysates are immunoblotted with antibodies specific for E-cadherin, N-cadherin, vimentin, or β-actin.
(§3) LLC and A549 lung cancer cells are treated with different concentrations of HIF-1α specific inhibitors, and cell migration is assessed in a transwell assay. […] Prolyl hydroxylase (PHD) controls HIF-1α protein stability by hydroxylation of two conserved proline residues in HIF-1α thereby accelerating its degradation. […] Cell lysates are immunoblotted with antibodies specific for E-cadherin, Vimentin, or […]-actin.

Assay [2] has as its system SUCNR1. To be noted: A549, succinate 1 mM.
Assay [3] concerns LLC cells. The experiment in a line: transwell migration and Matrigel invasion, LLC. The class given is cell-based, murine. The conditions noted are these: 24 h; for succinate-induced LLC migration: succinate with test agent. The method, then:
as §1, §3

Assay [4] has as its system HIF-1α. The experiment in a line: kinase phosphorylation and HIF-1α expression in LLC cells. It counts as cell-based, murine. The conditions noted are these: succinate 1 mM.
Assay [5] concerns MCF-7. To be noted: MCF-7, different concentrations of succinate, 24 h. The protocol: as §1
Assay [6] relates to LLC. An excerpt: The subcutaneous primary tumors are surgically removed after 3 weeks and mice are kept for another 2 weeks at which time animals are sacrificed.
The subject of assay [7] is A549 cells. The experiment in a line: EMT marker immunoblot in A549 cells. The class given is cell-based, human. The method, then: as §2, §3
On the technique in general: A western blot detects proteins with antibodies after separation by electrophoresis.

Assay [8] concerns SUCNR1. To be noted: succinate 1 mM, 2 h.
Assay [9] concerns HT-29. In words: transwell migration and Matrigel invasion, HT-29. It counts as cell-based, human. To be noted: HT-29, different concentrations of succinate, 24 h. The method, then:
(§4) Transwell migration and invasion assays are performed.
(§5) Succinate-induced migration of LLC, A549, PC3 and HT-29 cells is blocked by anti-SUCNR1 antibody but not control IgG antibody (FIG. 23A).

The test system of assay [10] is peritoneal macrophages. In words: peritoneal macrophage transwell migration (A549-CM, succinate, anti-SUCNR1). The class given is cell-based, mouse. To be noted: succinate vs control. The protocol:
The peritoneal macrophages are seeded on the upper chamber of transwell plates and cultured with control medium (DMEM) or CM from A549 (A549-CM) for 24 h. […] As shown in FIGS. 18A and 18B, A549-CM and A549-SCM increase macrophage migration compared with the control medium, which is abrogated by anti-SUCNR1 antibody but not control IgG.

Assay [11] has as its system HIF-1α. The experiment in a line: kinase phosphorylation and HIF-1α expression in A549 cells. It counts as cell-based, human. The conditions noted are these: for HIF-1α expression: A549/shNC cells, succinate 1 mM or DMS 20 mM, 12 h, qPCR. The protocol: MAPK-, phosphatidylinositol 3-kinase (PI3K)-AKT-mTOR-, and AMP-activated protein kinase (AMPK)-mediated hypoxia-inducible factor-1α (HIF-1α) upregulation plays critical roles in macrophage activation and cancer progression. Therefore, it is investigated that whether these signaling molecules mediate the succinate actions. […] Using selective kinase inhibitors, LLC cells are treated with different concentrations of LY294002 or SB202190 for 12 h, and Hif-1α mRNA is measured. […] To understand the role of SUCNR1 in driving HIF-1α expression, the expression level of HIF-1α in A549/shSUCNR1 is determined.
(Real-time PCR tracks product formation cycle by cycle.)

Assay [12] deals with mouse peritoneal macrophages. The method, then: (§6) On day 21, primary subcutaneous tumors are harvested, and percentage of TAMs is analyzed.
Assay [13] concerns LLC. To be noted: succinate 20 and 100 mg/kg i.p. twice a week for 3 weeks vs saline. The method, then: as §6
The subject of assay [14] is PC3. In words: transwell migration and Matrigel invasion, PC3. The class given is cell-based, human. To be noted: PC3, different concentrations of succinate, 24 h. The protocol: as §4, §5
The test system of assay [15] is LLC. In words: syngeneic murine LLC tumor model treated with 6G10F6 monoclonal antibody.
Protocol: (§7) VCAM1^+CD11c^+CD11b^low-TAM population is quantified by flow cytometry and normalized to the cell number of control medium treatment. […] The LLC cells are subcutaneously injected into C57BL/6J mice. The mice with an average 50 mm^3 subcutaneous tumors (8 day after LLC tumor inoculation) receive intraperitoneal injections of 6G10F6 monoclonal antibody (1 and 5 mg/kg) or IgG control antibody (5 mg/kg), twice a week for 5 weeks. The subcutaneous tumors are surgically removed 3 weeks after LLC injection for the assessment of TAM polarization; the lung, liver, spleen, and adrenal gland are excised from mice 2 weeks after removal of the primary tumor for the determination of tumor metastasis.
In assay [16] the test system is peritoneal macrophages. In words: succinate-induced peritoneal macrophage migration with anti-succinate antibodies, transwell. It counts as cell-based, mouse. To be noted: succinate 1 mM, 24 h.
Protocol: as §7
In assay [17] the test system is PMϕs. The experiment in a line: VCAM1+CD11c+CD11b low-TAM population in succinate-stimulated PMϕs, flow cytometry. The class given is cell-based, mouse. The conditions noted are these: pre-treated 1 h, succinate 1 mM 3 days. A general note: In flow cytometry, cells or beads pass a laser one at a time.
Protocol: as §7
Where [18] appears, read: succinate 20 and 100 mg/kg i.p. twice a week vs saline.

Data on 8 molecules can be found in US12559574B2 (National Health Research Institutes, priority 2019, dated 2026).

Like-named read-outs stand apart in the source and are kept apart here.

Take `O=C(O)CCC(=O)O` [succinate]: the “cell migration and invasion” value in assay [1] (A549, different concentrations of succinate) is “promotes cell migration and invasion”; in assay [3] (LLC, different concentrations of succinate), “promotes cell migration and invasion”; in assay [5] it was “promotes cell migration and invasion”; in assay [9], “promotes cell migration and invasion”; in assay [14], “promotes cell migration and invasion”. Also, in assay [2], the “phosphorylated ERK1/2” value is “rapid rise of phosphorylated ERK1/2 at 2 min”. The “intracellular Ca2+” value in assay [2] (2 h) and in assay [8] (LLC) was “increased” in each case. Also, the “HIF-1α protein and mRNA expression” value in assay [4] is on record as “increases HIF-1α protein”; in assay [11] (A549, succinate 1 mM), “increases HIF-1α protein”. Moreover, the “phosphorylation of p38 MAPK, AKT, and AMPK” value was “induces phosphorylation of p38 MAPK, AKT, and AMPK in a time-dependent manner” in assay [4]; “induces phosphorylation of p38 MAPK, AKT, and AMPK in a time-dependent manner” in assay [11] (A549, succinate 1 mM). Also, the “metastatic cancer nodules in liver and spleen” value in assay [6] (setting [18]) is reported as “similarly higher”. Besides, the “metastatic cancer nodules in lungs” value in [6] (setting [18]) is recorded as “higher in mice receiving succinate (in a dose-dependent manner) than in mice receiving saline”. Besides, the “incidence of adrenal metastasis” value in assay [6] (succinate-treated vs saline, p=0.088) is given as “higher in succinate-treated animal, but the difference does not reach statistical significance”. For the same molecule, the “E-cadherin, N-cadherin and vimentin levels” value in assay [7] (succinate 0.5, 1, 2.5 mM 24 h, 1 mM time course) is “suppresses E-cadherin and increased N-cadherin and vimentin in a concentration and time-dependent manner”. Moreover, the “PGE2 released into the medium” value in [8] (LLC stably transfected with control shRNA) is reported as “increased”. For the same molecule, the macrophage migration result in assay [10] is “dramatically increase macrophage migration”. Also, the HIF-1α expression entry in [11] was “Up-regulation of HIF-1α is observed”. For the same molecule, the ARG1 protein expression entry in assay [12] (different concentrations of succinate, 24 h) was “increases the expression of ARG1 protein in mouse peritoneal macrophages in a concentration-dependent manner”. Moreover, the “TAM marker gene expression (Arg1, Fizz1, Mgl1, Mgl2 mRNA)” value in assay [12] (qPCR, 24 h) was “raises the expression of TAM marker gene”. For the same molecule, in [12] (succinate 1 mM, 3 days, flow cytometry), the “TAM surface markers CD11c and VCAM1” value is given as “up-regulates TAM surface markers”. In addition, the “VCAM1+CD11c+CD11b low-TAMs in primary subcutaneous tumors” value in [13] is “significantly higher number”.

In the case of `Cc1cc(-c2nc(-c3ccc(OC(F)(F)F)cc3)no2)nn1Cc1ccnc(N2CCN(C3CC3)CC2)c1` [Bay 87-2243], in assay [1], the “succinate-induced A549 migration” value is “inhibit succinate-mediated migration of LLC and A549 in a dose-dependent manner”. The “succinate-induced LLC migration” value in assay [3] was “inhibit succinate-mediated migration of LLC and A549 in a dose-dependent manner”. In addition, the “succinate-mediated vimentin augmentation and E-cadherin reduction” value in assay [7] (pretreated 1 h, succinate 1 mM 24 h) is “suppresses”.

Take `COC(=O)CCC(=O)OC` [DMS, dimethyl-ester succinate, reference compound]: the HIF-1α expression entry in assay [11] is “results in elevation of HIF-1α”.

Regarding `O=C(O)CCC(=O)C(=O)O` [α-KG, α-ketoglutarate], the “succinate-induced A549 migration” value in [1] is recorded as “reduces”.

On to `COc1cc2c(cc1O)CC[C@@H]1[C@@H]2CC[C@]2(C)[C@@H](O)CC[C@@H]12` [2-MeOE2], for which the “succinate-induced A549 migration” value in [1] was “inhibit succinate-mediated migration of LLC and A549 in a dose-dependent manner”. For the same molecule, the “succinate-induced LLC migration” value in [3] was “inhibit succinate-mediated migration of LLC and A549 in a dose-dependent manner”.

With `COC(=O)CNC(=O)C(=O)OC` [DMOG, dimethyloxalyl glycine], the “succinate-induced A549 migration” value in assay [1] is reported as “increases”.

Take `CN(C)C(=N)N=C(N)N` [metformin]: the “succinate-induced A549 migration” value in assay [1] is on record as “abolish”.

B1: 6G10F6: mouse monoclonal anti-succinate antibody, heavy chain SEQ ID NO: 2, light chain SEQ ID NO: 4 (antibody, V domains shown)
VH: MRVLILLWLFTAFPGILSDVQLQESGPGLVKPSQSLSLTCTVTGYSITSDYAWNWFRQFPGNKLEWMGYTSYSGSTSYNPSLKSRISITRNTSKNQIFLQLNSVTPEDTATYYCAREVTTFGYFDYWGQGTTLTVSS
VL: MAWTSLILSLLALCSGASSQAVVTQESALTTSPGGTVILTCRSSTGAVTTSNYANWVQEKPDHLFTGLIGGTSNRAPGVPVRFSGSLIGDKAALTITGAQTEDDAMYFCALWYSTHYVLGGGTKVTVL
modifications: Heavy chain of 6G10F6 Antibody; Light chain of 6G10F6 antibody
Regarding B1, the “survival of LLC tumor-bearing mice” value in assay [15] (1 and 5 mg/kg i.p.) is “significantly prolongs the survival”. Also, the lung tumor multiplicities result in assay [15] (1 and 5 mg/kg i.p. twice a week for 5 weeks, vs saline) is on record as “significantly suppresses”. The “TAM population in subcutaneous tumors” value in [15] (1 and 5 mg/kg i.p. twice a week, vs saline) is listed as “significantly suppresses”. Moreover, the succinate-induced macrophage migration result in assay [16] is recorded as “suppresses”. Besides, the “succinate up-regulated TAM surface markers CD11c and VCAM1” value in assay [17] is “suppresses”.
